Target: TNF-α converting enzyme (TACE) (Homo sapiens, UniProt P78536)
Assay: Test procedure for measuring TACE inhibition (fluorescent peptidyl substrate)
Assay type: biochemical
Conditions: Table 1

TNF-α converting enzyme (TACE), sequence (P78536 215-824): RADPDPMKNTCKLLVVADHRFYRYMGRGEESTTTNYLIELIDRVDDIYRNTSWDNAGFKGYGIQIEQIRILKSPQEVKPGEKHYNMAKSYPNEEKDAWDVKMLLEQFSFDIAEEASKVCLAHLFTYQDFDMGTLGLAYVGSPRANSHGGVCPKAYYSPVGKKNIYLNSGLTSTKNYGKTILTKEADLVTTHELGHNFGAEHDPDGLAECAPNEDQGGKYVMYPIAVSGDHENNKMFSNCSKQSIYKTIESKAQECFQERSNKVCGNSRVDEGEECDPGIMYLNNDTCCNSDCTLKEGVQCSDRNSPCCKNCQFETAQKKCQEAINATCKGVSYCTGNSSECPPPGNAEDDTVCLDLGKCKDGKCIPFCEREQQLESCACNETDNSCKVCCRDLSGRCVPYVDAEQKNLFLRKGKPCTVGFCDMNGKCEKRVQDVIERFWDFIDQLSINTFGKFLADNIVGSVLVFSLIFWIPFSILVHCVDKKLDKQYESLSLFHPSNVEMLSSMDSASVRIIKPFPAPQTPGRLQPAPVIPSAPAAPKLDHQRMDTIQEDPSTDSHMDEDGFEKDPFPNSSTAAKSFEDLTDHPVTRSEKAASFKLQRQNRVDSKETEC

| Molecule | IC50 |
| --- | --- |
| CC#CCOc1ccc(SC(CCCCNC(=O)CNC(=O)c2ccccc2CCc2ccccc2)C(=O)NO)cc1 (stereo not shown) [Example 46] | 84.2 nM |
| CC#CCOc1ccc(SC(CCCCNC(=O)C2c3ccccc3Oc3ccccc32)C(=O)NO)cc1 (stereo not shown) [Example 19, 9H-Xanthene-9-carboxylic acid [5-(4-but-2-ynyloxy-phenylsulfanyl)-5-hydroxycarbamoylpentyl]-amide] | 43.3 nM |
| CC#CCOc1ccc(SC(CCCCNC(=O)CCCc2cccs2)C(=O)NO)cc1 (stereo not shown) [Example 18, 2-(4-But-2-ynyloxy-phenylsulfanyl)-6-(4-thiophen-2-yl-butyrylamino)-hexanoic acid hydroxyamide] | 36.9 nM |
| CC#CCOc1ccc([S+]([O-])C(CCCCNC(=O)CNC(=O)c2ccc3ccccc3n2)C(=O)NO)cc1 (stereo not shown) [Example 54] | 27.2 nM |
| CC#CCOc1ccc(SC(CCCCNC(=O)c2ccc3ccccc3n2)C(=O)NO)cc1 (stereo not shown) [Example 14, Quinoline-2-carboxylic acid [5-(4-but-2-ynyloxy-phenylsulfanyl)-5-hydroxycarbamoylpentyl]-amide] | 62.9 nM |
| CC#CCOc1ccc([S+]([O-])C(CCCCNC(=O)Cc2csc3ccccc23)C(=O)NO)cc1 (stereo not shown) [Example 32, 6-(2-Benzo[b]thiophen-3-yl-acetylamino)-2-(4-but-2-ynyloxy-benzenesulfinyl)-hexanoic acid hydroxyamide] | 46.8 nM |
| CC#CCOc1ccc(SC(CCCCNC(=O)c2ccccc2CCc2ccccc2)C(=O)NO)cc1 (stereo not shown) [Example 15, N-[5-(4-But-2-ynyloxy-phenylsulfanyl)-5-hydroxycarbamoyl-pentyl]-2-phenethylbenzamide] | 138 nM |
| CC#CCOc1ccc(SC(CCCCNC(=O)c2cnc3ccccc3c2)C(=O)NO)cc1 (stereo not shown) [Example 17, Quinoline-3-carboxylic acid [5-(4-but-2-ynyloxy-phenylsulfanyl)-5-hydroxycarbamoylpentyl]-amide] | 43.7 nM |
| CC#CCOc1ccc(SC(CCCCNC(=O)CNC(=O)c2cccn2C)C(=O)NO)cc1 (stereo not shown) [Example 51, 1-Methyl-1H-pyrrole-2-carboxylic acid ([5-(4-but-2-ynyloxy-phenylsulfanyl)-5-hydroxycarbamoyl-pentylcarbamoyl]-methyl}-amide] | 22.4 nM |
| CC#CCOc1ccc(S(=O)(=O)C(CCCCNC(=O)c2ccc3ccccc3n2)C(=O)NO)cc1 (stereo not shown) [Example 35, Quinoline-2-carboxylic acid [5-(4-but-2-ynyloxy-benzenesulfonyl)-5-hydroxycarbamoylpentyl]-amide] | 68.3 nM |
| CC#CCOc1ccc(S(=O)(=O)C(CCCCNC(=O)CNC(=O)c2ccccc2CCc2ccccc2)C(=O)NO)cc1 (stereo not shown) [Example 64, N-{[5-(4-But-2-ynyloxy-benzenesulfonyl)-5-hydroxycarbamoyl-pentylcarbamoyl]-methyl}-2-phenethyl-benzamide] | 42 nM |
| CC#CCOc1ccc(S(=O)(=O)C(CCCCNC(=O)CNC(=O)C2c3ccccc3Oc3ccccc32)C(=O)NO)cc1 (stereo not shown) [Example 67, 9H-Xanthene-9-carboxylic acid {[5-(4-but-2-ynyloxy-benzenesulfonyl)-5-hydroxycarbamoyl-pentylcarbamoyl]-methyl}-amide] | 34.8 nM |
| CC#CCOc1ccc([S+]([O-])C(CCCCNC(=O)c2ccccc2CCc2ccccc2)C(=O)NO)cc1 (stereo not shown) [Example 25, N-[5-(4-But-2-ynyloxy-benzenesulfinyl)-5-hydroxycarbamoyl-pentyl]-2-phenethylbenzamide] | 43.5 nM |
| CC#CCOc1ccc(SC(CCCCNC(=O)CNC(=O)C(c2ccccc2)c2ccccc2)C(=O)NO)cc1 (stereo not shown) [Example 49, 2-(4-But-2-ynyloxy-phenylsulfanyl)-6-(2-diphenylacetylamino-acetylamino)-hexanoic acid hydroxyamide] | 53.8 nM |
| CC#CCOc1ccc([S+]([O-])C(CCCCNC(=O)CNC(=O)CN2C(=O)c3ccccc3C2=O)C(=O)NO)cc1 (stereo not shown) [Example 55, 2-(4-But-2-ynyloxy-benzenesulfinyl)-6-[2-(1,3-dioxo-1,3-dihydro-isoindol-2-yl)-acetylammo]-hexanoic acid hydroxyamide] | 38.5 nM |
| CC#CCOc1ccc(SC(CCCCNC(=O)CNC(=O)C2c3ccccc3Oc3ccccc32)C(=O)NO)cc1 (stereo not shown) [Example 48, 9H-Xanthene-9-carboxylic acid {[5-(4-but-2-ynyloxy-phenylsulfanyl)-5-hydroxycarbamoylpentylcarbamoyl]-methyl}-amide] | 82.1 nM |
| CC#CCOc1ccc([S+]([O-])C(CCCCNC(=O)Cc2ccc(Cl)c(Cl)c2)C(=O)NO)cc1 (stereo not shown) [Example 26, 2-(4-But-2-ynyloxy-benzenesulfinyl)-6-[2-(3,4-dichloro-phenyl)-acetylamino]-hexanoic acid hydroxyamide] | 29.9 nM |
| CC#CCOc1ccc(SC(CCCCNC(=O)CNC(=O)CN2C(=O)c3ccccc3C2=O)C(=O)NO)cc1 (stereo not shown) [Example 45, 2-(4-But-2-ynyloxy-phenylsulfanyl)-6-{2-[2-(1,3-dioxo-1,3-dihydro-isoindol-2-yl)-acetylamino]-acetylamino}-hexanoic acid hydroxyamide] | 16.1 nM |
| CC#CCOc1ccc(S(=O)(=O)C(CCCCNC(=O)CNC(=O)C(c2ccccc2)c2ccccc2)C(=O)NO)cc1 (stereo not shown) [Example 62, 2-(4-But-2-ynyloxy-benzenesulfonyl)-6-(2-diphenylacetylamino-acetylamino)-hexanoic acid hydroxyamide] | 31.9 nM |

| Molecule | IC50 |
| --- | --- |
| CC#CCOc1ccc(S(=O)(=O)C(CCCCNC(=O)CNC(=O)CN2C(=O)c3ccccc3C2=O)C(=O)NO)cc1 (stereo not shown) [Example 63, 2-(4-But-2-ynyloxy-benzenesulfonyl)-6-{2-[2-(1,3-dioxo-1,3-dihydro-isoindol-2-yl)-acetyl-amino]-acetylamino}-hexanoic acid hydroxyamide] | 16.1 nM |
| CC#CCOc1ccc(SC(CCCCNC(=O)CNC(=O)c2cnc3ccccc3c2)C(=O)NO)cc1 (stereo not shown) [Example 47, Quinoline-3-carboxylic acid {[5-(4-but-2-ynyloxy-phenylsulfanyl)-5-hydroxycarbamoyl-pentylcarbamoyl]-methyl}-amide] | 18.9 nM |
| CC#CCOc1ccc(SC(CCCCNC(=O)c2nccc3ccccc23)C(=O)NO)cc1 (stereo not shown) [Example 21, Isoquinoline-1-carboxylic acid [5-(4-but-2-ynyloxy-phenylsulfanyl)-5-hydroxycarbamoylpentyl]-amide] | 20.1 nM |
| CC#CCOc1ccc(S(=O)(=O)C(CCCCNC(=O)c2cnc3ccccc3c2)C(=O)NO)cc1 (stereo not shown) [Example 38, Quinoline-3-carboxylic acid [5-(4-but-2-ynyloxy-benzenesulfonyl)-5-hydroxycarbamoylpentyl]-amide] | 39.9 nM |
| CC#CCOc1ccc(S(=O)(=O)C(CCCCNC(=O)CNC(=O)c2nccc3ccccc23)C(=O)NO)cc1 (stereo not shown) [Example 68, Isoquinoline-1-carboxylic acid {[5-(4-but-2-ynyloxy-benzenesulfonyl)-5-hydroxycarbamoyl-pentylcarbamoyl]-methyl}-amide] | 21.2 nM |
| 2-(4-But-2-ynyloxy-benzenesulfinyl)-6-diphenylacetylamino-hexanoic acid hydroxyamide [Example 60] | 40.9 nM |
| CC#CCOc1ccc(SC(CCCCNC(=O)CNC(=O)c2nccc3ccccc23)C(=O)NO)cc1 (stereo not shown) [Example 50, Isoquinoline-1-carboxylic acid {[5-(4-but-2-ynyloxy-phenylsulfanyl)-5-hydroxycarbamoylpentylcarbamoyl]-methyl}-amide] | 35.9 nM |
| CC#CCOc1ccc(SC(CCCCNC(=O)CNC(=O)c2ccc3ccccc3n2)C(=O)NO)cc1 (stereo not shown) [Example 44, Quinoline-2-carboxylic acid {[5-(4-but-2-ynyloxy-phenylsulfanyl)-5-hydroxycarbamoylpentylcarbamoyl]-methyl}-amide] | 32.1 nM |
| CC#CCOc1ccc(SC(CCCCNC(=O)C(c2ccccc2)c2ccccc2)C(=O)NO)cc1 (stereo not shown) [Example 20, 2-(4-But-2-ynyloxy-phenylsulfanyl)-6-diphenylacetylamino-hexanoic acid hydroxyamide] | 88.6 nM |
| N-[5-(4-But-2-ynyloxy-benzenesulfonyl)-5-hydroxycarbamoyl-pentyl]-2-phenethyl-benzamide [Example 34] | 147 nM |
| CC#CCOc1ccc(S(=O)(=O)C(CCCCNC(=O)CN2C(=O)c3ccccc3C2=O)C(=O)NO)cc1 (stereo not shown) [Example 36, 2-(4-But-2-ynyloxy-benzenesulfonyl)-6-[2-(1,3-dioxo-1,3-dihydro-isoindol-2-yl)-acetylamino]-hexanoic acid hydroxyamide] | 16.8 nM |
| CC#CCOc1ccc(SC(CCCCNC(=O)CN2C(=O)c3ccccc3C2=O)C(=O)NO)cc1 (stereo not shown) [Example 13, 2-(4-But-2-ynyloxy-phenylsulfanyl)-6-[2-(1,3-dioxo-1,3-dihydroiso-indol-2-yl)-acetylamino]-hexanoic acid hydroxyamide] | 42.5 nM |
| CC#CCOc1ccc(S(=O)(=O)C(CCCCNC(=O)c2nccc3ccccc23)C(=O)NO)cc1 (stereo not shown) [Example 41, Isoquinoline-1-carboxylic acid [5-(4-but-2-ynyloxy-benzenesulfonyl)-5-hydroxycarbamoyl-pentyl]-amide] | 37.3 nM |
| CC#CCOc1ccc(S(=O)(=O)C(CCCCNC(=O)CNC(=O)Cc2c[nH]c3ccccc23)C(=O)NO)cc1 (stereo not shown) [Example 70, 2-(4-But-2-ynyloxy-benzenesulfonyl)-6-[2-(2-1H-indol-3-yl-acetylamino)-acetylamino]-hexanoic acid hydroxyamide] | 88.1 nM |
| CC#CCOc1ccc(S(=O)(=O)C(CCCCNC(=O)CNC(=O)Cc2csc3ccccc23)C(=O)NO)cc1 (stereo not shown) [Example 69] | 29.2 nM |
| CC#CCOc1ccc(S(=O)(=O)C(CCCCNC(=O)C(c2ccccc2)c2ccccc2)C(=O)NO)cc1 (stereo not shown) [Example 40, 2-(4-But-2-ynyloxy-benzenesulfonyl)-6-diphenylacetylamino-hexanoic acid hydroxyamide] | 59.1 nM |
| CC#CCOc1ccc(SC(CCCCNC(=O)Cc2ccc(Cl)c(Cl)c2)C(=O)NO)cc1 (stereo not shown) [Example 16, 2-(4-But-2-ynyloxy-phenylsulfanyl)-6-[2-(3,4-dichloro-phenyl)-acetylamino]-hexanoic acid hydroxyamide] | 24.9 nM |
| CC#CCOc1ccc(SC(CCCCNC(=O)Cc2csc3ccccc23)C(=O)NO)cc1 (stereo not shown) [Example 22, 6-(2-Benzo[b]thiophen-3-yl-acetylamino)-2-(4-but-2-ynyloxy-phenylsulfanyl)-hexanoic acid hydroxyamide] | 32.8 nM |

— patent EP1147080B1 (Wyeth Holdings Corporation, priority 1999, dated 2000)
